Experiment: Photostability under continuous 808 nm laser irradiation
Assay type: physicochemical
Details: aqueous solution, 808 nm laser at 108 mW/cm^2, 20 minutes
Procedure: Indocyanine green (ICG), an FDA-approved near-infrared dye widely used clinically, was used as a control to evaluate the photostability of compound Ia (SQ 905). ICG was dissolved in water, and compound Ia (SQ 905) was dissolved in methanol. Over a period of 25 minutes, the methanol solution of compound Ia and the aqueous solution of ICG were continuously irradiated with an 808 nm laser at 108 mW/cm^2. During this period, the fluorescence intensity was recorded using a near-infrared II camera (MARS, Artemis Intelligent Imaging, Shanghai, China). Images were recorded every minute for the first 15 minutes, and every 5 minutes thereafter to monitor the fluorescence intensity. The fluorescence intensity of the region of interest (ROI) in the captured images was quantified using ImageJ software and compared with the initial fluorescence intensity to obtain the ratio of fluorescence intensity at each time point relative to the initial intensity. The photostability curve of compound Ia was plotted using GraphPad Prism 8.0.2 software.
Accordingly, the photostability of compound Ia was evaluated in this example. The methanol solution of compound Ia and the aqueous solution of ICG were used for photostability testing.

CC1(C)C(/C=C/C=C/C=C/C=C2\N(CCCCS(=O)(=O)O)c3ccc4ccccc4c3C2(C)C)=[N+](CCCCS(=O)(=O)[O-])c2ccc3ccccc3c21 [ICG, Indocyanine green]
decrease of fluorescence intensity after continuous irradiation: 83%
